Patent publication US8501977B2, “Platinum complex and pharmaceutical composition containing the same” (Unitech Co., Ltd., priority 2008, dated 2013)

Columns and labels:
[1] = system: LU99 (human lung cancer cell); assay: MTS cell proliferation test, LU99 (Embodiment 8); type: cell-based
Experimental: (§1) Respectively, the S medicine test solution was prepared by dissolving the ((S,S,S) cis,cis-spiro[4,4]nonane-1,6-diamine)oxalatoplatinum(II) complex (compound 2; hereinafter, it is described as S medicine) into the dimethylsulfoxide (DMSO) with the concentration of 10 mg/ml and the R medicine test solution was prepared by dissolving the ((R,R,R)cis,cis-spiro[4,4]nonane-1,6-diamine) oxalatoplatinum(II) complex (compound 3; hereinafter, it is described as R medicine) into the dimethylsulfoxide (DMSO) with the concentration of 10 mg/ml.
(§2) The test was performed by using A549 (human lung cancer cell), LU65A (human lung cancer cell), RERF-LC-MA (human lung cancer cell), LU99 (human lung cancer cell), H460 (human lung cancer cell), HCT116 (human colon cancer cell), HT-29 (human colon cancer cell), MKN-45 (human gastric cancer cell), MKN-1 (human gastric cancer cell), U937 (human lymphoma cell), KP-1N (human pancreas cancer cell) and B2452 (human mesotheliama cell) as the cancer cell.
(§3) These cells were suspended in the each culture medium that the serum of 10% was added, and were dispensed in 96-well plate. And then, these were cultured in 5% CO2 at 37 degrees centigrade during a night. Next day, the S medicine test solution and the R medicine test solution were prepared in the culture medium to the various concentrations (5, 10, 20 μg/ml), and were dispensed into the plates that the cells were set preliminarily. And further, these were cultured in 5% CO2 at 37 degrees centigrade for three days.
(§4) The cell proliferation after the medicine addition was measured on the 3rd day from the 1st day after the medicine addition by the MTS method (kit for cell proliferation test manufactured by Promega Company).
(§5) The inhibition rate (%) of the cell proliferation was obtained from the measured MTS value by the following formula. Inhibition rate(%)=(1-MTS value of medicine addition group/MTS value of medicine non-addition group)×100
(§6) Because the value which was obtained by the above-mentioned formula represents the inhibition rate of the cell proliferation, the higher the numerical value is, the higher the medicine effect is. It is desired that the one whose value is 50% or more has the medicine effect.

[2] = system: LU65A (human lung cancer cell); assay: MTS cell proliferation test, LU65A (Embodiment 8); type: cell-based
Experimental: as §1, §2, §3, §4, §5, §6

[3] = system: MKN-1 (human gastric cancer cell); assay: MTS cell proliferation test, MKN-1 (Embodiment 8); type: cell-based
Experimental: as §1, §2, §3, §4, §5, §6

[4] = system: H460 (human lung cancer cell); assay: MTS cell proliferation test, H460 (Embodiment 8); type: cell-based
Experimental: as §1, §2, §3, §4, §5, §6

[5] = system: A549 (human lung cancer cell); assay: MTS cell proliferation test, A549 (Embodiment 8); type: cell-based
Experimental: as §1, §2, §3, §4, §5, §6

[6] = system: RERF-LC-MA (human lung cancer cell); assay: MTS cell proliferation test, RERF-LC-MA (Embodiment 8); type: cell-based
Experimental: as §1, §2, §3, §4, §5, §6

[7] = system: tumor cells; assay: MTS cell proliferation test, all cancer cells of Embodiment 8; type: cell-based, human; conditions: summary of Table 2 in words
Experimental: as §1
The test was performed by using A549 (human lung cancer cell), LU65A (human lung cancer cell), RERF-LC-MA (human lung cancer cell), LU99 (human lung cancer cell), H460 (human lung cancer cell), HCT116 (human colon cancer cell), HT-29 (human colon cancer cell), MKN-45 (human gastric cancer cell), MKN-1 (human gastric cancer cell), U937 (human lymphoma cell), KP-1N (human pancreas cancer cell) and B2452 (human mesotheliama cell) as the cancer cell. […]
as §4
The inhibition rate (%) of the cell proliferation was obtained from the measured MTS value by the following formula. […]

[8] = system: U937 (human lymphoma cell); assay: MTS cell proliferation test, U937 (Embodiment 8); type: cell-based
Experimental: as §1, §2, §3, §4, §5, §6

[9] = system: HCT116 (human colon cancer cell); assay: MTS cell proliferation test, HCT116 (Embodiment 8); type: cell-based
Experimental: as §1, §2, §3, §4, §5, §6

[10] = system: HT-29 (human colon cancer cell); assay: MTS cell proliferation test, HT-29 (Embodiment 8); type: cell-based
Experimental: as §1, §2, §3, §4, §5, §6

[11] = system: KP-1N (human pancreas cancer cell); assay: MTS cell proliferation test, KP-1N (Embodiment 8); type: cell-based
Experimental: as §1, §2, §3, §4, §5, §6

[12] = system: H2452 cell (human mesothelicana cell); assay: MTS cell proliferation test, H2452 (Embodiment 8); type: cell-based
Experimental: as §1, §2, §3, §4, §5, §6

[13] = system: MKN-45 (human gastric cancer cell); assay: MTS cell proliferation test, MKN-45 (Embodiment 8); type: cell-based
Experimental: as §1, §2, §3, §4, §5, §6

SMILES: NC1CCCC12CCCC2N.O=C1[O][Pt][O]C1=O [S medicine, ((S,S,S) cis,cis-spiro[4,4]nonane-1,6-diamine)oxalatoplatinum(II) complex]
- Inhibition rate of cell proliferation after 3 days from medicine addition (%) ([1]; LU99, 5 μg/ml): ◯ (◯: 51~75%)
- Inhibition rate of cell proliferation after 3 days from medicine addition (%) ([1]; LU99, 10 μg/ml): ⊚ (⊚: 76~100%)
- Inhibition rate of cell proliferation after 3 days from medicine addition (%) ([1]; LU99, 20 μg/ml): ⊚ (⊚: 76~100%)
- Inhibition rate of cell proliferation after 3 days from medicine addition (%) ([2]; 5 μg/ml): ◯ (◯: 51~75%)
- Inhibition rate of cell proliferation after 3 days from medicine addition (%) ([2]; 10 μg/ml): ⊚ (⊚: 76~100%)
- Inhibition rate of cell proliferation after 3 days from medicine addition (%) ([2]; 20 μg/ml): ⊚ (⊚: 76~100%)
- Inhibition rate of cell proliferation after 3 days from medicine addition (%) ([3]; MKN-1, 5 μg/ml): ◯ (◯: 51~75%)
- Inhibition rate of cell proliferation after 3 days from medicine addition (%) ([3]; MKN-1, 10 μg/ml): ⊚ (⊚: 76~100%)
- Inhibition rate of cell proliferation after 3 days from medicine addition (%) ([3]; MKN-1, 20 μg/ml): ⊚ (⊚: 76~100%)
- Inhibition rate of cell proliferation after 3 days from medicine addition (%) ([4]; H460, 5 μg/ml): Δ (Δ: 26~50%)
- Inhibition rate of cell proliferation after 3 days from medicine addition (%) ([4]; H460, 10 μg/ml): ◯ (◯: 51~75%)
- Inhibition rate of cell proliferation after 3 days from medicine addition (%) ([4]; H460, 20 μg/ml): ⊚ (⊚: 76~100%)
- Inhibition rate of cell proliferation after 3 days from medicine addition (%) ([5]; A549, 5 μg/ml): X (X: 0~25%)
- Inhibition rate of cell proliferation after 3 days from medicine addition (%) ([5]; A549, 10 μg/ml): ◯ (◯: 51~75%)
- Inhibition rate of cell proliferation after 3 days from medicine addition (%) ([5]; A549, 20 μg/ml): ⊚ (⊚: 76~100%)
- Inhibition rate of cell proliferation after 3 days from medicine addition (%) ([6]; 5 μg/ml): X (X: 0~25%)
- Inhibition rate of cell proliferation after 3 days from medicine addition (%) ([6]; 10 μg/ml): Δ (Δ: 26~50%)
- Inhibition rate of cell proliferation after 3 days from medicine addition (%) ([6]; 20 μg/ml): ◯ (◯: 51~75%)
- medicine effect for the many tumor cells [7]: high medicine effect compared with the oxaliplatin
- Inhibition rate of cell proliferation after 3 days from medicine addition (%) ([8]; U937, 5 μg/ml): ⊚ (⊚: 76~100%)
- Inhibition rate of cell proliferation after 3 days from medicine addition (%) ([8]; U937, 10 μg/ml): ⊚ (⊚: 76~100%)
- Inhibition rate of cell proliferation after 3 days from medicine addition (%) ([8]; U937, 20 μg/ml): ⊚ (⊚: 76~100%)
- Inhibition rate of cell proliferation after 3 days from medicine addition (%) ([9]; HCT116, 5 μg/ml): ◯ (◯: 51~75%)
- Inhibition rate of cell proliferation after 3 days from medicine addition (%) ([9]; HCT116, 10 μg/ml): ◯ (◯: 51~75%)
- Inhibition rate of cell proliferation after 3 days from medicine addition (%) ([9]; HCT116, 20 μg/ml): ◯ (◯: 51~75%)
- Inhibition rate of cell proliferation after 3 days from medicine addition (%) ([10]; HT-29, 5 μg/ml): Δ (Δ: 26~50%)
- Inhibition rate of cell proliferation after 3 days from medicine addition (%) ([10]; HT-29, 10 μg/ml): Δ (Δ: 26~50%)
- Inhibition rate of cell proliferation after 3 days from medicine addition (%) ([10]; HT-29, 20 μg/ml): ◯ (◯: 51~75%)
- Inhibition rate of cell proliferation after 3 days from medicine addition (%) ([11]; 5 μg/ml): Δ (Δ: 26~50%)
- Inhibition rate of cell proliferation after 3 days from medicine addition (%) ([11]; 10 μg/ml): ◯ (◯: 51~75%)
- Inhibition rate of cell proliferation after 3 days from medicine addition (%) ([11]; 20 μg/ml): ⊚ (⊚: 76~100%)
- Inhibition rate of cell proliferation after 3 days from medicine addition (%) ([12]; H2452, 5 μg/ml): X (X: 0~25%)
- Inhibition rate of cell proliferation after 3 days from medicine addition (%) ([12]; H2452, 10 μg/ml): Δ (Δ: 26~50%)
- Inhibition rate of cell proliferation after 3 days from medicine addition (%) ([12]; H2452, 20 μg/ml): Δ (Δ: 26~50%)
- Inhibition rate of cell proliferation after 3 days from medicine addition (%) ([13]; MKN-45, 5 μg/ml): ⊚ (⊚: 76~100%)
- Inhibition rate of cell proliferation after 3 days from medicine addition (%) ([13]; MKN-45, 10 μg/ml): ⊚ (⊚: 76~100%)
- Inhibition rate of cell proliferation after 3 days from medicine addition (%) ([13]; MKN-45, 20 μg/ml): ⊚ (⊚: 76~100%)
